Experimental data from the NIST ThermoML archive (doi:10.1021/je7001418).

Assay: cn = amount concentration of the nth substance listed, in mol/dm3
Settings: 298.15 K, 101.3 kPa, Liquid; for viscosity: Capillary tube (Ostwald / Ubbelohde) method; for mass density: Pycnometric method

C[N+](C)(C)C.[I-] [tetramethylammonium iodide] + O
Settings	mass density [kg/m3]	viscosity [mPa·s]
c1 = 0.05	1001	0.805
c1 = 0.1	1003	0.812
c1 = 0.15	1009	0.819
